In patent USRE50528E1, “Compounds and compositions for modulating EGFR mutant kinase activities” (Yuhan Corporation, priority 2014, dated 2025):
Like-named read-outs stand apart in the source and are kept apart here.

Tests used:
EGFR mutant T790M = biological target: T1, EGFR mutant T790M (Homo sapiens, UniProt P00533, T790M); test: Kinase inhibition assay, EGFR mutant T790M; details: biochemical potency;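 further: truncated human EGFR mutant enzyme preincubated two hours with compound, then ATP plus ULight-PolyGT peptide for one hour, Europium-labeled antibody LANCE detection, IC50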
T1 construct: truncated human JAK3, EGFR mutants such as del E746-A750; purchased Carna Biosciences

SYK = biological target: T2, SYK (Homo sapiens, UniProt P43405); test: Kinase inhibition assay, SYK; format: biochemical; details: biochemical potency;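 further: purified full-length human SYK pre-incubated 30 min with compound, then ULight-TK peptide phosphorylation for 1 h, detected with Europium-labeled antibody in Lance buffer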
T2 construct: Purified human, full-length SYK, KDR; purchased Carna Biosciences

EGFR mutant L858R = biological target: T3, EGFR mutant L858R (Homo sapiens, UniProt P00533, L858R); test: Kinase inhibition assay, EGFR L858R; format: biochemical; details: read-out: EGFR mutants L858R;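 further: truncated human EGFR L858R kinase with compound preincubation, ULight-PolyGT peptide phosphorylation read by Europium-antibody Lance detection, IC50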
T3 construct: truncated human JAK3, EGFR mutants such as del E746-A750; purchased Carna Biosciences

[1] = biological target: T4, EGFR mutant Del19 (E746-A750) (Homo sapiens, UniProt P00533, DEL746-750); test: Kinase inhibition assay, EGFR del E746-A750; format: biochemical; details: read-out: EGFR mutants Del19 (E746-A750);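 further: truncated human EGFR mutant kinase, two-hour preincubation with compound, then one-hour reaction with ATP and ULight-PolyGT peptide, LANCE Europium-antibody phosphorylation readout, IC50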
T4 construct: truncated human JAK3, EGFR mutants such as del E746-A750; purchased Carna Biosciences

EGFR mutant L858R/T790M = biological target: T5, EGFR mutant L858R/T790M (Homo sapiens, UniProt P00533, L858R/T790M); test: Kinase inhibition assay, EGFR L858R/T790M; format: biochemical; details: read-out: EGFR mutants L858R/T790M;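 further: truncated human enzyme preincubated two hours with compound, then one hour with one millimolar ATP and ULight-PolyGT peptide, Europium-labeled antibody detection, IC50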
T5 construct: truncated human JAK3, EGFR mutants such as del E746-A750; purchased Carna Biosciences

Compound C=CC(=O)Nc1ccc(OC)c(Nc2nccc(-n3ccc(C)n3)n2)c1 [Compound 9, N-(4-methoxy-3-(4-(3-methyl-1H-pyrazol-1-yl)pyrimidin-2-ylamino)phenyl)acrylamide] has an IC50 (EGFR mutant T790M) of 0.02 to 0.2 µM and an IC50 (SYK) greater than 1 µM.
With C=CC(=O)Nc1ccc(OC)c(Nc2ncc(C)c(-n3cc(CN4CC(O)C4)cn3)n2)c1 [Compound 11, N-(3-(4-(4-((3-hydroxyazetidin-1-yl)methyl)-1H-pyrazol-1-yl)-5-methylpyrimidin-2-ylamino)-4-methoxyphenyl)acrylamide] the IC50 (EGFR mutant T790M) was less than 0.02 µM and the IC50 (SYK) was 0.02 to 0.2 µM.
C=CC(=O)Nc1cc(Nc2nccc(-n3cc(CN4CCC4)c(C)n3)n2)c(OC)cc1N(C)CCN(C)C [Compound 16, N-(5-(4-(4-(azetidin-1-ylmethyl)-3-methyl-1H-pyrazol-1-yl)pyrimidin-2-ylamino)-2-((2-(dimethylamino)ethyl)(methyl)amino)-4-methoxyphenyl)acrylamide] showed an IC50 (EGFR mutant T790M) of 0.02 to 0.2 µM and an IC50 (SYK) greater than 1 µM.
Compound C=CC(=O)Nc1cc(Nc2nccc(-n3cc(CN4CCC4)c(C)n3)n2)c(OC)cc1N1CCCCC1 [Compound 18, N-(5-(4-(4-(azetidin-1-ylmethyl)-3-methyl-1H-pyrazol-1-yl)pyrimidin-2-ylamino)-4-methoxy-2-(piperidin-1-yl)phenyl)acrylamide] has an IC50 (EGFR mutant T790M) of less than 0.02 µM and an IC50 (SYK) greater than 1 µM.
C=CC(=O)Nc1cc(Nc2ncc(C)c(-n3cc(CN4C[C@@H](O)[C@@H](O)C4)cn3)n2)c(OC)cc1N1CCOCC1 [Compound 20, N-(5-(4-(4-(((3R,4S)-3,4-dihydroxypyrrolidin-1-yl)methyl)-1H-pyrazol-1-yl)-5-methylpyrimidin-2-ylamino)-4-methoxy-2-morpholinophenyl)acrylamide] showed an IC50 (EGFR mutant T790M) of less than 0.02 µM and an IC50 (SYK) of 0.201 to 1 µM.
For C=CC(=O)Nc1cc(Nc2ncc(C)c(-n3cc(CN4CC(O)C4)c(C)n3)n2)c(OC)cc1N1CCOCC1 [Compound 24, N-(5-(4-(4-((3-hydroxyazetidin-1-yl)methyl)-3-methyl-1H-pyrazol-1-yl)-5-methylpyrimidin-2-ylamino)-4-methoxy-2-morpholinophenyl)acrylamide], the IC50 (EGFR mutant T790M) was less than 0.02 µM and the IC50 (SYK) was 0.201 to 1 µM.
With C=CC(=O)Nc1cc(Nc2ncc(C)c(-n3cc(CN4CC[C@@H](O)C4)c(C)n3)n2)c(OC)cc1N1CCOCC1 [Compound 27, (R)—N-(5-(4-(4-((3-hydroxypyrrolidin-1-yl)methyl)-3-methyl-1H-pyrazol-1-yl)-5-methylpyrimidin-2-ylamino)-4-methoxy-2-morpholinophenyl)acrylamide] the IC50 (EGFR mutant T790M) was less than 0.02 µM and the IC50 (SYK) was greater than 1 µM.
With C=CC(=O)Nc1cc(Nc2nccc(-n3cc(CN4CC(O)C4)c(C)n3)n2)c(OC)cc1-c1cnn(C)c1 [Compound 58, N-(5-(4-(4-((3-hydroxyazetidin-1-yl)methyl)-3-methyl-1H-pyrazol-1-yl)pyrimidin-2-ylamino)-4-methoxy-2-(1-methyl-1H-pyrazol-4-yl)phenyl)acrylamide] the IC50 (EGFR mutant T790M) was 0.02 to 0.2 µM and the IC50 (SYK) was 0.201 to 1 µM.
Work on C=CC(=O)Nc1cc(Nc2ncc(F)c(-n3cc(CN4C[C@H](O)[C@H](OC)C4)c(C)n3)n2)c(OC)cc1N1CCOCC1 [Compound 61, N-(5-(5-fluoro-4-(4-(((3S,4R)-3-hydroxy-4-methoxypyrrolidin-1-yl)methyl)-3-methyl-1H-pyrazol-1-yl)pyrimidin-2-ylamino)-4-methoxy-2-morpholinophenyl)acrylamide] yielded an IC50 (EGFR mutant T790M) of less than 0.02 µM, an IC50 (EGFR mutant L858R) of 0.02 to 0.2 µM and an IC50 [1] of 0.02 to 0.2 µM. The IC50 (SYK) was greater than 1 µM and the IC50 (EGFR mutant L858R/T790M) was 0.02 to 0.2 µM.
For C=CC(=O)Nc1cc(Nc2ncc(C)c(-n3cc(CN4CCC4)cn3)n2)c(OC(C)C)cc1N1CCOCC1 [Compound 63, N-(5-(4-(4-(azetidin-1-ylmethyl)-1H-pyrazol-1-yl)-5-methylpyrimidin-2-ylamino)-4-isopropoxy-2-morpholinophenyl)acrylamide], the IC50 (EGFR mutant T790M) was 0.02 to 0.2 µM, the IC50 (EGFR mutant L858R) was 0.201 to 1 µM and the IC50 [1] was 0.02 to 0.2 µM. It also gave an IC50 (SYK) greater than 1 µM and an IC50 (EGFR mutant L858R/T790M) of 0.02 to 0.2 µM.
C=CC(=O)Nc1cc(Nc2nccc(-n3cc(CO)c(C)n3)n2)c(OC)cc1N1CCOCC1 [Compound 66, N-(5-(4-(4-(hydroxymethyl)-3-methyl-1H-pyrazol-1-yl)pyrimidin-2-ylamino)-4-methoxy-2-morpholinophenyl)acrylamide] gave an IC50 (EGFR mutant T790M) of 0.02 to 0.2 µM, an IC50 (EGFR mutant L858R) of 0.02 to 0.2 µM and an IC50 [1] of less than 0.02 µM. It also gave an IC50 (SYK) greater than 1 µM and an IC50 (EGFR mutant L858R/T790M) of less than 0.02 µM.
With C=CC(=O)Nc1cc(Nc2nccc(-n3cc(CN4CC(F)C4)c(C)n3)n2)c(OC)cc1N1CCOCC1 [Compound 72, N-(5-(4-(4-((3-fluoroazetidin-1-yl)methyl)-3-methyl-1H-pyrazol-1-yl)pyrimidin-2-ylamino)-4-methoxy-2-morpholinophenyl)acrylamide] the IC50 (EGFR mutant T790M) was 0.02 to 0.2 µM.
For C=CC(=O)Nc1cc(Nc2nccc(-n3cc(CN(C)C)c(-c4ccccc4)n3)n2)c(OC)cc1N1CCCC1 [Compound 98, N-(5-(4-(4-((dimethylamino)methyl)-3-phenyl-1H-pyrazol-1-yl)pyrimidin-2-ylamino)-4-methoxy-2-(pyrrolidin-1-yl)phenyl)acrylamide], the IC50 (EGFR mutant T790M) was 0.02 to 0.2 µM, the IC50 (EGFR mutant L858R) was 0.02 to 0.2 µM and the IC50 [1] was less than 0.02 µM. The IC50 (EGFR mutant L858R/T790M) was 0.02 to 0.2 µM.
C=CC(=O)Nc1cc(Nc2nccc(-n3cc(CN4CCC4)c(-c4ccccc4)n3)n2)c(OC)cc1N1CCCC1 [Compound 99, N-(5-(4-(4-(azetidin-1-ylmethyl)-3-phenyl-1H-pyrazol-1-yl)pyrimidin-2-ylamino)-4-methoxy-2-(pyrrolidin-1-yl)phenyl)acrylamide] was tested, and the IC50 (EGFR mutant T790M) was 0.02 to 0.2 µM, the IC50 (EGFR mutant L858R) was 0.02 to 0.2 µM and the IC50 [1] was less than 0.02 µM. The IC50 (EGFR mutant L858R/T790M) was 0.02 to 0.2 µM.
C=CC(=O)Nc1cc(Nc2nccc(-n3cc(CN4CCC4)c(C(C)(C)C)n3)n2)c(OC)cc1N(C)CCOC [Compound 101, N-(5-(4-(4-(azetidin-1-ylmethyl)-3-tert-butyl-1H-pyrazol-1-yl)pyrimidin-2-ylamino)-4-methoxy-2-((2-methoxyethyl)(methyl)amino)phenyl)acrylamide] showed an IC50 (EGFR mutant T790M) of less than 0.02 µM, an IC50 (EGFR mutant L858R) of less than 0.02 µM and an IC50 [1] of less than 0.02 µM. It also gave an IC50 (SYK) greater than 1 µM and an IC50 (EGFR mutant L858R/T790M) of less than 0.02 µM.
C=CC(=O)Nc1cc(Nc2nccc(-n3cc(CN4CCC4)c(C(C)(C)C)n3)n2)c(OC)cc1N(C)C1COC1 [Compound 103, N-(5-(4-(4-(azetidin-1-ylmethyl)-3-tert-butyl-1H-pyrazol-1-yl)pyrimidin-2-ylamino)-4-methoxy-2-(methyl(oxetan-3-yl)amino)phenyl)acrylamide] was tested, and the IC50 (EGFR mutant T790M) was less than 0.02 µM, the IC50 (EGFR mutant L858R) was less than 0.02 µM and the IC50 [1] was less than 0.02 µM. The IC50 (EGFR mutant L858R/T790M) was less than 0.02 µM.
C=CC(=O)Nc1cc(Nc2nccc(-n3cc(CN(C)C)c(C(C)(C)C)n3)n2)c(OC)cc1N1CCCC1 [Compound 104, N-(5-(4-(3-tert-butyl-4-((dimethylamino)methyl)-1H-pyrazol-1-yl)pyrimidin-2-ylamino)-4-methoxy-2-(pyrrolidin-1-yl)phenyl)acrylamide] was tested, and the IC50 (EGFR mutant T790M) was less than 0.02 µM and the IC50 (SYK) was greater than 1 µM.
Work on C=CC(=O)Nc1cc(Nc2nccc(-n3cc(CN4CCC4)c(C(C)(C)C)n3)n2)c(OC)cc1N1CCCC1 [Compound 105, N-(5-(4-(4-(azetidin-1-ylmethyl)-3-tert-butyl-1H-pyrazol-1-yl)pyrimidin-2-ylamino)-4-methoxy-2-(pyrrolidin-1-yl)phenyl)acrylamide] yielded an IC50 (EGFR mutant T790M) of 0.02 to 0.2 µM and an IC50 (SYK) greater than 1 µM.
C=CC(=O)Nc1cc(Nc2nccc(-n3cc(CN4CCC4)c(C4CC4)n3)n2)c(OC)cc1N1CCCC1 [Compound 111, N-(5-(4-(4-(azetidin-1-ylmethyl)-3-cyclopropyl-1H-pyrazol-1-yl)pyrimidin-2-ylamino)-4-methoxy-2-(pyrrolidin-1-yl)phenyl)acrylamide] was tested, and the IC50 (EGFR mutant T790M) was 0.02 to 0.2 µM and the IC50 (SYK) was greater than 1 µM.
Compound C=CC(=O)Nc1cc(Nc2nccc(-n3cc(CN(C)C)c(C(C)C)n3)n2)c(OC)cc1N1CCCC1 [Compound 116, N-(5-(4-(4-((dimethylamino)methyl)-3-isopropyl-1H-pyrazol-1-yl)pyrimidin-2-ylamino)-4-methoxy-2-(pyrrolidin-1-yl)phenyl)acrylamide] has an IC50 (EGFR mutant T790M) of less than 0.02 µM and an IC50 (SYK) greater than 1 µM.
C=CC(=O)Nc1cc(Nc2nccc(-n3cc(CN4CCC4)c(C(C)C)n3)n2)c(OC)cc1N1CCCC1 [Compound 117, N-(5-(4-(4-(azetidin-1-ylmethyl)-3-isopropyl-1H-pyrazol-1-yl)pyrimidin-2-ylamino)-4-methoxy-2-(pyrrolidin-1-yl)phenyl)acrylamide] showed an IC50 (EGFR mutant T790M) of less than 0.02 µM and an IC50 (SYK) greater than 1 µM.
Work on C=CC(=O)Nc1cc(Nc2ncc(F)c(-n3cc(C)c(CN(C)C)c3)n2)c(OC)cc1N(C)C [Compound 143, N-(2-(dimethylamino)-5-(4-(3-((dimethylamino)methyl)-4-methyl-1H-pyrrol-1-yl)-5-fluoropyrimidin-2-ylamino)-4-methoxyphenyl)acrylamide] yielded an IC50 (EGFR mutant T790M) of less than 0.02 µM and an IC50 (SYK) of 0.201 to 1 µM.
Work on “N-(2-((2-(dimethylamino)ethyl)(methyl)amino)-5-(4-(3-((dimethylamino)methyl)-4-(trifluoromethyl)-1H-pyrrol-1-yl)-5-fluoropyrimidin-2-ylamino)-4-methoxyphenyl)acrylamide [Compound 144]” yielded an IC50 (EGFR mutant T790M) of less than 0.02 µM.
“N-(5-(4-(4-(azetidin-1-ylmethyl)-3-methyl-1H-pyrazol-1-yl)pyrimidin-2-ylamino)-4-methoxy-2-(1H-pyrazol-1-yl)phenyl)acrylamide [Compound 53]” was tested, and the IC50 (EGFR mutant T790M) was 0.02 to 0.2 µM, the IC50 (EGFR mutant L858R; biochemical potency, 1 mM ATP) was 0.02 to 0.2 µM and the IC50 (SYK) was greater than 1 µM. The IC50 (EGFR mutant L858R/T790M; biochemical potency, 1 mM ATP) was 0.02 to 0.2 µM.
